Measured values published in US8623338B2, “Methionine-derived peptidomimetics and their use in the protection of mitochondria of cutaneous cells” (Exsymol S.A.M., priority 2010, dated 2014).
Several values for one entry are separate records, joined by “and”; a condition that tells them apart may be missing. Identical values can stand only once. Like-named read-outs stand apart in the source and are kept apart here. Marks after values point to notes of the source that are not given here.

Tests used:
[1] = system: cell line of fibroblasts called V79; assay: Restoration of cellular ATP levels in V79 fibroblasts exposed to H2O2 stress (luminometry, ATPlite 1step); format: cell-based, hamster; conditions: V79 cells
Description: Test 1: Evidence of the Ability of the Methionine-derived Peptidomimetics to Restore the Cellular ATP Levels on Cells Exposed to a Stress (H2O2):
The experimental study has been carried out on a cell line of fibroblasts called V79, and seeded in a 96 well plate at the rate of 5000 cells per well in 100 μl of culture medium (containing 10% foetal calf serum). This one is then replaced in each of the well by 100 μl of medium containing some peptidomimetics according to the invention, at the concentration of 7.5 mM or 10 mM. After 2 hours of incubation, the medium is removed from all wells. Then the cells are submitted to a stress with the addition of a medium containing 50 μl of hydrogen peroxide H2O2 (4 ppm). After 8 additional hours of incubation, the ATP average concentration is measured by luminometry in presence of luciferin (“ATPlite lstep” kit) and through a standard curve prepared from highly purified ATP.
The results, expressed as the average values obtained from three independent experiments, are presented in the hereafter table 1, in comparison with a control.

[2] = Percutaneous absorption on human skin explants (Frantz-type cells, OECD guideline 428); format: in vitro ADME; conditions: 1% solution, 24 hours contact
Text: Test 2: Percutaneous Absorption Study of the Methionine-derived Peptidomimetics on Human Skin Explants: The values of permeability coefficient (Kp) were obtained from a previously frozen abdominal […] human skin, in accordance with protocol described in the OECD guidelines n° 428 on cutaneous absorption studies. Experimentally, the skin explants were placed on Frantz-type cells in passive diffusion, piloted by the “MicroettePlus Hanson Research” system. The tested products are applied in a non-occlusive way. After that skin was laid on the cells, 500 μl of peptidomimetic according to the invention (1% solution) were placed in each of the cells and for a total contact time of 24 hours. At the end of these ones, the remaining product is sampled and the skin surface rinsed for extraction and for measure of the absorbed quantity, then for the determination of the permeability coefficient expressed under logarithmic type (Log Kp).

[3] = system: O2°− superoxide anion present in mitochondria of V79 cells; assay: Mitochondrial oxidative stress in V79 cells under H2O2 stress (MitoSOX Red, flux cytometry); format: cell-based, hamster; conditions: for % of positive cells to MitoSOX: V79 cells
Text: (§1) Test 3: Evidence of the Protective Effect of the N-Acety-(DL)-Methionyl-4-(Methylthio)Propylamine Compound on the Mitochondrial Oxidative Stress and on the Mitochondrial Biogenesis
(§2) Principles: measures of the mitochondrial intracellular oxidative stress and detection of the mitochondrial biogenesis were achieved by flux cytometry with the following fluorophore markers: • the “MitoSOX™ Red” red fluorescent probe below-designed “MitoSOX” (detection to λ=580 nm; supplier: Invitrogen) allows to specifically detect the O2°^− superoxide anion present in mitochondria (due to its strong affinity for mitochondria), • the “MitoTracker® Green FM” green fluorescent probe below-designed “Mitogreen” (detection to λ=516 nm; supplier: Invitrogen) allows to quantify the mitochondrial mass (or related number of mitochondria per cell).
(§3) Experimentally, tests were achieved on a fibroblastic line of hamster “V79”, maintained by lining out in a “EMEM” complete culture medium (with 10% foetal calf serum) in humid atmosphere at 37° C. and 5% CO2. The V79 cells are seeded then incubated 24 hours in […] at the rate of 2.5·10^5 cells per well in 3 ml of the same culture medium, then exposed 1h30 to a stress with the addition of a medium containing hydrogen peroxide H2O2 (15 ppm).
(§4) After trypsination, the cells are incubated at 37° C. for 15 minutes in 1 ml of “EMEM” complete culture medium and containing the above-mentioned markers “MitoSOX” (at the final concentration of 5 μM) and “Mitogreen” (at the final concentration of 200 nM), for respective detection: • of the mitochondrial oxidative stress (expressed in % of positive cells) • of the mitochondrial mass per cell (expressed in % of MFI (“Mean Fluorescence Intensity”) in relation to the control).
(§5) The results, expressed as the average values obtained from four independent experiments, are presented in the hereafter tables 3a and 3b, in comparison with those obtained for the N-acetyl-cysteine chosen as a reference protective agent at the concentration of 5 mM.

[4] = system: mitochondrial mass of V79 cells; assay: Mitochondrial mass / biogenesis in V79 cells under H2O2 stress (MitoTracker Green FM, flux cytometry); format: cell-based, hamster; conditions: Mitogreen
Text: as §1, §2, §3, §4, §5

[5] = Hydroxyl radical scavenging speed constant (deoxyribose / thiobarbituric acid method); conditions: pH 7.4, 37° C., one hour
Text: Test 5: Evidence of the Antioxidant Effect of the N-Acety-(DL)-Methionyl-4-(Methylthio)Propylamine and N-Propionyl-(DL)-Methionyl-4-(Methylthio)Propylamine on the Hydroxyl Radical
The method, described by Rehman A. and coll. (British J. Pharmacol. (1997), vol. 122, pp. 1702-1706), is used for the determination of the scavenging speed constant of the hydroxyl radical [Ks (OH°)], the peptidomimetic according to the invention being compared to two reference antioxidants, mannitol and ascorbic acid (vitamin C).
Experimentally, the tested substance is dissolved in a buffered medium of pH 7.4 to which is added a OH° generating system (ascorbate/iron/EDTA) in presence of deoxyribose. After one hour of incubation at 37° C., the reaction is stopped with the help of trichloroacetic acid. After colorimetric visualization with thiobarbituric acid, the absorbance is measured at 532 nm for different concentrations, then the relative Ks (OH°) is calculated for each of the substances.

[6] = Whitening test of pyrogallol red by peroxynitrite ions; conditions: inhibition of pyrogallol red (50 μM) oxidation by ONOO− (25 μM), pH 7.0, 5 minutes
Text: Test 6: Evidence of the Antioxidant Effect of the […])Propylamine Compound on Peroxynitrite Ions The method so-called “whitening test of the pyrogallol red (PR)”, described by Nath V. B. and coll.

[7] = reference antioxidants, literature footnotes; cited from earlier work
[8] = literature value (Mitragotri 2003); cited from earlier work

Structure (SMILES): CSCCCNC(=O)C(CCSC)NC(C)=O (stereo not drawn) [N-acetyl-(DL)-methionyl-4-(methylthio)propylamine]
- ATP ([1]; compound 7.5 mM + H2O2 (4 ppm), 8 h): 483 nM
- ATP ([1]; compound 7.5 mM, no H2O2): 591 nM
- Kp [2]: 0.000109 cm/h
- effect on intramitochondrial stress (MitoSOX and Mitogreen) ([3]; V79 cells + H2O2, in words, both tables 3a and 3b): ability to reduce the effect of intramitochondrial stress
- % of positive cells to MitoSOX ([3]; 7.5 mM + H2O2 (15 ppm, 1h30)): 40.3%
- MFI (% control) ([4]; 7.5 mM + H2O2 (15 ppm, 1h30)): 123.5 % control
- MFI (% control) ([4]; 10 mM + H2O2 (15 ppm, 1h30)): 127.5 % control
- Ks(OH°) [5]: 6.1 10^9 · M^−1 · s^−1
- IC50 [6]: 1010 µM

Structure (SMILES): CC(=O)N[C@@H](CS)C(=O)O [N-acetyl-cysteine, reference compound]
- % of positive cells to MitoSOX ([3]; 5 ppm + H2O2 (15 ppm, 1h30)): 15.2%
- MFI (% control) ([4]; 5 ppm + H2O2 (15 ppm, 1h30)): 74.4 % control

Structure (SMILES): CCC(=O)NC(CCSC)C(=O)NCCCSC (stereo not drawn) [N-propionyl-(DL)-methionyl-4-(methylthio)propylamine]
- ATP ([1]; compound 10 mM + H2O2 (4 ppm), 8 h): 449 nM
- ATP ([1]; compound 10 mM, no H2O2): 528 nM
- Kp [2]: 9.7e-05 cm/h
- Ks(OH°) [5]: 5.7 10^9 · M^−1 · s^−1

Structure (SMILES): Cc1c(C)c2c(c(C)c1O)CCC(C)(C(=O)O)O2 (stereo not shown) [Trolox, carboxylic 2-(6-hydroxy-2,5,7,8-tetramethylchromane) acid, reference compound]
- IC50 [6]: 83 µM

Structure (SMILES): O=C1O[C@H]([C@@H](O)CO)C(O)=C1O [ascorbic acid]
- Ks(OH°) [7]: 10.1** 10^9 · M^−1 · s^−1

Structure (SMILES): Cn1c(=O)c2c(ncn2C)n(C)c1=O [caffeine]
- Kp [8]: 1 · 10^−4** cm · h^−1

Structure (SMILES): OC[C@@H](O)[C@@H](O)[C@H](O)[C@H](O)CO [mannitol]
- Ks(OH°) [7]: 1.6 10^9 · M^−1 · s^−1 and 1.9 10^9 · M^−1 · s^−1
